Laboratory results from PubChem BioAssay (NCI).
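Where inhibition never reached the appropriate level, the endpoint shown equals the highest concentration tested. Otherwise, values were interpolated linearly from a five-concentration, 48-hour dose response in 96-well plates. At the TGI there is no net growth.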

Assays:
Assay in all cases: growth of human tumour cells (NCI), 48 h
[1] = tested on: MDA-MB-435
[2] = tested on: MCF7 breast
[3] = tested on: UO-31 renal
[4] = tested on: SF-295 CNS
[5] = tested on: SK-MEL-5 melanoma
[6] = tested on: LOX IMVI melanoma
[7] = tested on: CAKI-1 renal
[8] = tested on: HL-60(TB) leukemia
[9] = tested on: HCT-116 colon
[10] = tested on: PC-3 prostate
[11] = tested on: SW-620 colon
[12] = tested on: UACC-257 melanoma
[13] = tested on: CCRF-CEM leukemia
[14] = tested on: SF-539 CNS
[15] = tested on: OVCAR-3 ovarian
[16] = tested on: HCC-2998 colon
[17] = tested on: MALME-3M melanoma
[18] = tested on: K-562 leukemia
[19] = tested on: SF-268 CNS
[20] = tested on: DU-145 prostate
[21] = tested on: MDA-N
[22] = tested on: NCI-H460 lung
[23] = tested on: U251 CNS
[24] = tested on: HS 578T breast
[25] = tested on: COLO 205 colon
[26] = tested on: TK-10 renal
[27] = tested on: SN12C renal
[28] = tested on: A549 NSCLC
[29] = tested on: KM12 colon
[30] = tested on: RPMI-8226 leukemia
[31] = tested on: OVCAR-8 ovarian
[32] = tested on: MOLT-4 leukemia
[33] = tested on: IGROV1 ovarian
[34] = tested on: RXF 393 renal
[35] = tested on: HOP-62 NSCLC
[36] = tested on: NCI-H226 lung
[37] = tested on: NCI-H23 lung
[38] = tested on: OVCAR-5 ovarian
[39] = tested on: NCI-H522 lung
[40] = tested on: M14 melanoma
[41] = tested on: SR leukemia
[42] = tested on: SK-MEL-28 melanoma
[43] = tested on: NCI/ADR-RES ovarian
[44] = tested on: HT29 colon
[45] = tested on: HCT-15 colon
[46] = tested on: EKVX NSCLC
[47] = tested on: ACHN renal
[48] = tested on: SNB-19 CNS
[49] = tested on: SNB-75 CNS
[50] = tested on: MDA-MB-231 breast
[51] = tested on: 786-0 renal
[52] = tested on: UACC-62 melanoma
[53] = tested on: SK-OV-3 ovarian
[54] = tested on: HOP-92 NSCLC
[55] = tested on: A498 renal
[56] = tested on: OVCAR-4 ovarian
[57] = tested on: BT-549 breast

`COc1ccc(NS(=O)c2ccc(-c3ccccc3)cc2)cc1` (stereo not given) gave a TGI [1] greater than 100 µM, a TGI [2] greater than 100 µM and a TGI [3] greater than 100 µM. For the same molecule, the TGI [4] was greater than 100 µM, the TGI [5] was greater than 100 µM and the TGI [6] was greater than 100 µM. It also gave a TGI [7] greater than 100 µM, a TGI [8] greater than 100 µM and a TGI [9] greater than 100 µM. The TGI [10] was greater than 100 µM, the TGI [11] was greater than 100 µM and the TGI [12] was greater than 100 µM. For the same molecule, the TGI [13] was greater than 100 µM, the TGI [14] was greater than 100 µM and the TGI [15] was greater than 100 µM. The TGI [16] was greater than 100 µM, the TGI [17] was greater than 100 µM and the TGI [18] was greater than 100 µM. For the same molecule, the TGI [19] was greater than 100 µM, the TGI [20] was greater than 100 µM and the TGI [21] was greater than 100 µM. It also gave a TGI [22] greater than 100 µM, a TGI [23] greater than 100 µM and a TGI [24] of 31.2 µM. The TGI [25] was greater than 100 µM, the TGI [26] was greater than 100 µM and the TGI [27] was greater than 100 µM. The TGI [28] was greater than 100 µM, the TGI [29] was greater than 100 µM and the TGI [30] was greater than 100 µM. For the same molecule, the TGI [31] was greater than 100 µM, the TGI [32] was greater than 100 µM and the TGI [33] was greater than 100 µM. For the same molecule, the TGI [34] was greater than 100 µM, the TGI [35] was greater than 100 µM and the TGI [36] was greater than 100 µM. It also gave a TGI [37] greater than 100 µM, a TGI [38] greater than 100 µM and a TGI [39] greater than 100 µM. It also gave a TGI [40] greater than 100 µM, a TGI [41] greater than 100 µM and a TGI [42] greater than 100 µM. The TGI [43] was greater than 100 µM, the TGI [44] was greater than 100 µM and the TGI [45] was greater than 100 µM. For the same molecule, the TGI [46] was greater than 100 µM, the TGI [47] was greater than 100 µM and the TGI [48] was greater than 100 µM. It also gave a TGI [49] of 62.5 µM and a TGI [50] greater than 100 µM.

`O=C(CBr)N1CCC2(CC1)SSC1(CCN(C(=O)CBr)CC1)S2` showed a TGI [1] of 4.48 µM, a TGI [51] of 1.81 µM and a TGI [3] of 2.01 µM. It also gave a TGI [4] of 3.51 µM, a TGI [9] of 1.29 µM and a TGI [10] of 3.38 µM. For the same molecule, the TGI [11] was 1.21 µM, the TGI [12] was 12.9 µM and the TGI [14] was 3.09 µM. For the same molecule, the TGI [18] was greater than 100 µM, the TGI [21] was 2.81 µM and the TGI [52] was 2.96 µM. The TGI [22] was 3.48 µM, the TGI [24] was 4.29 µM and the TGI [25] was 1.13 µM. The TGI [27] was 3.71 µM, the TGI [28] was 3.95 µM and the TGI [31] was 4.62 µM. For the same molecule, the TGI [53] was 2.71 µM, the TGI [37] was 3.13 µM and the TGI [38] was 3.03 µM. The TGI [40] was 2.86 µM, the TGI [42] was 4.55 µM and the TGI [43] was 4.32 µM. For the same molecule, the TGI [45] was 2.96 µM, the TGI [47] was 2.87 µM and the TGI [48] was 3.48 µM. The TGI [50] was 4.57 µM.

With `N=C(N)C1CN(CCc2cnc[nH]2)C(=O)NC1=O` (stereo not given) the TGI [1] was greater than 100 µM, the TGI [54] was greater than 100 µM and the TGI [51] was greater than 100 µM. It also gave a TGI [2] greater than 100 µM, a TGI [3] greater than 100 µM and a TGI [4] greater than 100 µM. It also gave a TGI [5] greater than 100 µM, a TGI [7] greater than 100 µM and a TGI [8] greater than 100 µM. The TGI [9] was greater than 100 µM, the TGI [10] was greater than 100 µM and the TGI [55] was greater than 100 µM. The TGI [56] was greater than 100 µM, the TGI [11] was greater than 100 µM and the TGI [12] was greater than 100 µM. It also gave a TGI [13] greater than 100 µM, a TGI [14] greater than 100 µM and a TGI [15] greater than 100 µM. For the same molecule, the TGI [16] was greater than 100 µM, the TGI [17] was greater than 100 µM and the TGI [19] was greater than 100 µM. It also gave a TGI [20] greater than 100 µM, a TGI [21] greater than 100 µM and a TGI [52] greater than 100 µM. It also gave a TGI [22] greater than 100 µM, a TGI [23] greater than 100 µM and a TGI [24] greater than 100 µM. The TGI [25] was greater than 100 µM, the TGI [26] was greater than 100 µM and the TGI [27] was greater than 100 µM. It also gave a TGI [28] greater than 100 µM, a TGI [29] greater than 100 µM and a TGI [30] greater than 100 µM. The TGI [31] was greater than 100 µM, the TGI [53] was greater than 100 µM and the TGI [32] was greater than 100 µM. For the same molecule, the TGI [33] was greater than 100 µM, the TGI [34] was greater than 100 µM and the TGI [35] was greater than 100 µM. For the same molecule, the TGI [37] was greater than 100 µM, the TGI [38] was greater than 100 µM and the TGI [39] was greater than 100 µM. For the same molecule, the TGI [40] was greater than 100 µM, the TGI [57] was greater than 100 µM and the TGI [41] was greater than 100 µM. For the same molecule, the TGI [42] was greater than 100 µM, the TGI [44] was greater than 100 µM and the TGI [45] was greater than 100 µM. For the same molecule, the TGI [46] was greater than 100 µM, the TGI [47] was greater than 100 µM and the TGI [48] was greater than 100 µM. It also gave a TGI [49] greater than 100 µM.
